Laboratory results taken from patent publication US20120208848A1 (NEUROSYSTEC CORPORATION, priority 2005, published 2012).

What was measured:
Assay type in all cases: physicochemical
[1] = Loss of 25 μM gacyclidine in polypropylene vials with and without SOLUTOL HS 15; conditions: 0.15 M NaCl, 37° C., one or three days
Procedure: Some of these solutions also contained 0.1% SOLUTOL® HS 15.
Although the results after three days of incubation parallel those obtained after one day of incubation at 37° C., the increased loss observed at low pH in the samples incubated for three days presumably reflected losses due to decomposition.

[2] = Elution of gacyclidine from a suspension of the free base form
Procedure: The pH of these solutions was monitored by use of a pH meter, as described in Example 3. […] The average temperature of these solutions was 23° C. and varied between 21 and 25° C.

[3] = Chemical stability of gacyclidine acid and base forms (decomposition to piperidine); conditions: for decomposition rate: 54° C.; for time required for 10% loss of gacyclidine due to decomposition / rate of decomposition: acid form
Procedure: To monitor piperidine formation a Zorbax SB-CN column (25×0.46 cm, 5 μm; PN 880975, SN USS F01 3866) purchased from Agilent Technologies was maintained at 30° C. and eluted with a mixture composed of 50% Buffer A and 50% Buffer B at 150 μL/minute for 60 minutes. Buffer A was composed of water containing 0.1% trifluoroacetic acid and Buffer B was composed of acetonitrile containing 0.1% trifluoroacetic acid. The effluent from this column was interfaced with an AQA single quadrupole mass spectrometer (Thermo Electron) and a Surveyor PDA detector (UV monitor, Thermo Electron). The column effluent was monitored at 232 nm and scans were collected between 200 to 300 nm by use of the PDA detector. […] Piperidine was detected by the mass spectrometer at 16.0 minutes after injection onto the Zorbax SB-CN column (at m/z=86 only). Piperidine could not be detected by use of the PDA (UV monitor).
Both sets of samples were then incubated for various lengths of time at either 54 or 56° C.
At 5° C., the rate of decomposition was very slow and was difficult to measure, except by determining piperidine formation. The rate of decomposition at 5° C. was approximately 0.0001 day^−1, as determined by piperidine formation, or 0.000055 day^−1 as determined by extrapolation from the rates at higher temperature according to the Arrhenius relationship.

[4] = Maintenance of gacyclidine in solution (HPLC solution concentration over time); conditions: 20° C.
Procedure: Gacyclidine was detected using a Surveyor HPLC system (Thermo Electron). A Grace Vydac C8 MASS SPEC column (cat #208MS5210; S/N NE981208-3-7) purchased from The Nest Group (Southboro, Mass.) was employed for these analyses. The chromatographic column was maintained at 30° C. Samples were prepared in 12 mm×32 mm autosampler vials (Thermo Electron, A4954-010) and maintained at 20° C. in the autosampler.
For maximum accuracy, a ‘full-loop’ injection protocol was employed, in which 80.7 μL was withdrawn from the vial to over-fill a 20 μL injection loop. The entire sample contained in the 20 μL injection loop was applied to the C8 chromatography column. The sample was then eluted at a flow rate of 300 μL/min with a step gradient composed of water containing 0.1% (volume/volume) trifluoroacetic acid (buffer A) and acetonitrile containing 0.1% (volume/volume) trifluoroacetic acid (buffer B). The step gradient consisted of elution with 100% buffer A from 0 to 5 minutes; 80% buffer A-20% buffer B from 5 to 15 minutes; 100% buffer B from 15 to 20 minutes and 100% buffer A from 20 to 25 minutes.
The column eluant was monitored at 234 nm by use of a Thermo Electron PDA UV detector. […] The presence of gacyclidine was confirmed by connecting the column eluant, after passage through the UV detector, to an AQA mass spectrometer (Thermo Electron).
An aliquot (10 μL) of these solutions was then added to 10.0 mL of either Ringer's Lactate (pH 6.6), Ringer's Lactate containing 100 μM NaOH (pH 7.5), or 0.1 N HCl (pH 1.0) to give a final drug concentration of 100 μM. Aliquots of these drug solutions were transferred to autosampler vials and maintained at 20° C. until being analyzed by HPLC.

[5] = Ringer's Lactate 133 μM NaHCO3, 1.10 days
[6] = Ringer's Lactate 133 μM NaHCO3, 1.54 days
[7] = Ringer's Lactate 133 μM NaHCO3, 5.79 days
[8] = Ringer's Lactate without pH adjustment, 1.10 days
[9] = Ringer's Lactate without pH adjustment, 1.54 days
[10] = Ringer's Lactate without pH adjustment, 5.79 days

CC1CCCCC1(c1cccs1)N1CCCCC1.Cl (centres unmarked) [gacyclidine, 1-(2-methyl-1-thiophen-2-yl-cyclohexyl)-piperidine hydrochloride]
effect of 0.1% SOLUTOL on losses of gacyclidine from solution [1]: no effect
pH above which losses of gacyclidine were observed [1]: > 6
gacyclidine ([2]; 2.8 mg free base in 20.0 mL Ringer's Lactate 133 μM NaHCO3, 23° C., 0.625 days): 20.7 µM
gacyclidine ([2]; 2.8 mg free base in 20.0 mL Ringer's Lactate without pH adjustment, 23° C., 0.625 days): 56.4 µM
pH of free base suspension ([2]; Ringer's Lactate 133 μM NaHCO3, 0.625 days): 7.54
gacyclidine [2, 5]: 37.1 µM
pH of free base suspension [2, 5]: 7.58
gacyclidine [2, 6]: 46.2 ± 0.3 µM
pH of free base suspension [2, 6]: 7.51
gacyclidine [2, 7]: 76.3 ± 0.3 µM
pH of free base suspension [2, 7]: 7.62
gacyclidine ([2]; Ringer's Lactate 133 μM NaHCO3, 9.85 days): 77.2 ± 0.5 µM
gacyclidine ([2]; Ringer's Lactate 133 μM NaHCO3, 12.9 days): 72.9 ± 1.1 µM
gacyclidine ([2]; Ringer's Lactate 133 μM NaHCO3, 14.0 days): 75.7 ± 2.0 µM
time to reach equilibrium concentration ([2]; Ringer's Lactate containing 0.13 mM sodium bicarbonate): ≤ 10 days
equilibrium concentration as % of the total amount of gacyclidine base added ([2]; Ringer's Lactate with added sodium bicarbonate): ~14%
equilibrium concentration as % of the total amount of gacyclidine base added ([2]; Ringer's Lactate without added sodium bicarbonate): about 30%
pH of free base suspension ([2]; Ringer's Lactate without pH adjustment, 0.625 days): 7.66
gacyclidine [2, 8]: 79.8 µM
pH of free base suspension [2, 8]: 7.44
gacyclidine [2, 9]: 88.3 ± 2.4 µM
pH of free base suspension [2, 9]: 7.46
gacyclidine [2, 10]: 124.4 ± 14.5 µM
pH of free base suspension [2, 10]: 7.38
gacyclidine ([2]; Ringer's Lactate without pH adjustment, 9.85 days): 152.4 ± 0.7 µM
gacyclidine ([2]; Ringer's Lactate without pH adjustment, 12.9 days): 162.2 ± 1.4 µM
gacyclidine ([2]; Ringer's Lactate without pH adjustment, 14.0 days): 157.9 ± 3.6 µM
time to reach equilibrium concentration ([2]; Ringer's Lactate without sodium bicarbonate): ≤ 10 days
maximum concentration achieved at equilibrium ([2]; solid gacyclidine base, starting pH near physiologic pH): about 75 μM
decomposition rate ([3]; 1.0 mM gacyclidine in 10 mM hydrochloric acid (acid form)): 0.52 day⁻¹
decomposition rate ([3]; 1.0 mM gacyclidine suspended in 1.5 mM sodium hydroxide (base form)): 0.0013 day⁻¹
time required for 10% loss of gacyclidine due to decomposition ([3]; 5° C.): 3 years
rate of decomposition ([3]; 5° C., determined by piperidine formation): approximately 0.0001 day^−1
rate of decomposition ([3]; 5° C., extrapolation from rates at higher temperature (Arrhenius)): 0.000055 day⁻¹
time required for 10% loss of gacyclidine due to decomposition ([3]; 23° C.): 53 days
time required for 10% loss of gacyclidine due to decomposition ([3]; 37° C.): 3.8 days
rate of decomposition ([3]; 55° C.): 0.73 day⁻¹
time required for 10% loss of gacyclidine due to decomposition ([3]; 56° C.): 0.138 days
concentration of gacyclidine ([4]; DMSO stock 1:1000 (0.1% DMSO), Ringer's Lactate pH 7.5, 100 μM initial, 0-3 hours): 97.5 µM
concentration of gacyclidine ([4]; DMSO stock 1:1000, 0.1N HCl (pH 1.0), 100 μM initial, 0-3 hours): 100.3 µM
concentration of gacyclidine ([4]; DMSO stock 1:1000, 0.1N HCl (pH 1.0), 100 μM initial, 3-6 hours): 100.2 µM
concentration of gacyclidine ([4]; DMSO stock 1:1000, 0.1N HCl (pH 1.0), 100 μM initial, 16-19 hours): 100.6 µM
concentration of gacyclidine ([4]; DMSO stock 1:1000, Ringer's Lactate pH 6.6, 100 μM initial, 0-3 hours): 96.0 µM
concentration of gacyclidine ([4]; DMSO stock 1:1000, Ringer's Lactate pH 6.6, 100 μM initial, 3-6 hours): 94.9 µM
concentration of gacyclidine ([4]; DMSO stock 1:1000, Ringer's Lactate pH 6.6, 100 μM initial, 16-19 hours): 91.3 µM
concentration of gacyclidine ([4]; DMSO stock 1:1000, Ringer's Lactate pH 7.5, 100 μM initial, 3-6 hours): 90.4 µM
concentration of gacyclidine ([4]; DMSO stock 1:1000, Ringer's Lactate pH 7.5, 100 μM initial, 16-19 hours): 79.3 µM
concentration of gacyclidine ([4]; aqueous stock 1:1000, 0.1N HCl (pH 1.0), 100 μM initial, 0-3 hours): 99.4 µM
concentration of gacyclidine ([4]; aqueous stock 1:1000, 0.1N HCl (pH 1.0), 100 μM initial, 3-6 hours): 99.8 µM
concentration of gacyclidine ([4]; aqueous stock 1:1000, 0.1N HCl (pH 1.0), 100 μM initial, 16-19 hours): 100.2 µM
concentration of gacyclidine ([4]; aqueous stock 1:1000, Ringer's Lactate pH 6.6, 100 μM initial, 0-3 hours): 95.1 µM
concentration of gacyclidine ([4]; aqueous stock 1:1000, Ringer's Lactate pH 6.6, 100 μM initial, 3-6 hours): 92.6 µM
concentration of gacyclidine ([4]; aqueous stock 1:1000, Ringer's Lactate pH 6.6, 100 μM initial, 16-19 hours): 87.7 µM
concentration of gacyclidine ([4]; aqueous stock 1:1000, Ringer's Lactate pH 7.5, 100 μM initial, 0-3 hours): 88.2 µM
concentration of gacyclidine ([4]; aqueous stock 1:1000, Ringer's Lactate pH 7.5, 100 μM initial, 3-6 hours): 72.0 µM
concentration of gacyclidine ([4]; aqueous stock 1:1000, Ringer's Lactate pH 7.5, 100 μM initial, 16-19 hours): 59.7 µM
